Reference: ChEMBL document CHEMBL1909514, “Imidazo[2,1-b]thiazole guanylhydrazones as RSK2 inhibitors” (Eur J Med Chem, 2011)

How the values were obtained:
[1] = molecular target: T1, Serine/threonine-protein kinase Chk1 (Homo sapiens, UniProt O14757)
T1 sequence (O14757 whole entry): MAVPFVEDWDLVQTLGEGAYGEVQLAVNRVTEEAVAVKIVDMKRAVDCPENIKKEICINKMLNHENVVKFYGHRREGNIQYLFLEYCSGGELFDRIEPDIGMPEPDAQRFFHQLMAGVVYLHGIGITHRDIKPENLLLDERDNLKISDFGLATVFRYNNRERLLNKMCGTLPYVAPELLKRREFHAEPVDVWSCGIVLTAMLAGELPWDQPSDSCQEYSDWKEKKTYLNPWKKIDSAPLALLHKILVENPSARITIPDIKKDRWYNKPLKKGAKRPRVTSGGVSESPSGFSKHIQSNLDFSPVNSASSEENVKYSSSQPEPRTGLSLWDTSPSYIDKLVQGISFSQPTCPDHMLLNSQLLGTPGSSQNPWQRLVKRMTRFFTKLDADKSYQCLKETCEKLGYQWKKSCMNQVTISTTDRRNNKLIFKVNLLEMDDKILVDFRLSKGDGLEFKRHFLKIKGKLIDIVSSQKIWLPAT

MDA-MB-468 = assay: Growth inhibition of human MDA-MB-468 cells after 48 hrs by SRB assay; assay type: functional; conditions: MDA-MB-468, 48 h
[2] = molecular target: Ribosomal protein S6 kinase alpha-1 (Homo sapiens, UniProt Q15418)
RXF 393 = assay: Growth inhibition of human RXF393 cells after 48 hrs by SRB assay; assay type: functional; conditions: RXF 393, 48 h
[3] = read-out: pLC50 (the source's name) (converted)

Sequence of Ribosomal protein S6 kinase alpha-1 (Q15418 whole entry): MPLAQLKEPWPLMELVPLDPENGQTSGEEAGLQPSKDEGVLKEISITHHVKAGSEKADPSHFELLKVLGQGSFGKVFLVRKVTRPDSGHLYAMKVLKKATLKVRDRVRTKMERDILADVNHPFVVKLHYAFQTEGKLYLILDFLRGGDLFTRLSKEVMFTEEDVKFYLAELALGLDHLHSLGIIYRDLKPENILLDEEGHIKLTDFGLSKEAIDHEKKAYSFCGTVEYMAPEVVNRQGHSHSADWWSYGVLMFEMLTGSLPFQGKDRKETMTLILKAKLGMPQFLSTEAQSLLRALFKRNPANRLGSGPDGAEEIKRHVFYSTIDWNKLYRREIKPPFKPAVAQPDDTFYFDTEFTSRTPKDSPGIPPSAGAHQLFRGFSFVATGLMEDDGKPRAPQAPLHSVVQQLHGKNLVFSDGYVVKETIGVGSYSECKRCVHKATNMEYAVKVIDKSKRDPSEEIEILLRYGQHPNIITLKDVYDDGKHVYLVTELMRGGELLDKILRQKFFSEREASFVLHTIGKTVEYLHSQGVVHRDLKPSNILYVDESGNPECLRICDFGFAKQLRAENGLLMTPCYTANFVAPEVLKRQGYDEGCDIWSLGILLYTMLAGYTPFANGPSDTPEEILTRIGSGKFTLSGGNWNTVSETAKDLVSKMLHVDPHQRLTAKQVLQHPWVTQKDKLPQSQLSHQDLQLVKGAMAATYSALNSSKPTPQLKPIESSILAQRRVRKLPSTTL

N=C(N)N/N=C\c1c(-c2ccc([N+](=O)[O-])cc2)nc2sc(Br)cn12
IC50 [1]: 13800 nM
GI50 (MDA-MB-468): 158 nM
CC50 (MDA-MB-468; [3]): 646 nM
TGI (MDA-MB-468; read-out: pTGI (converted)): 3240 nM
IC50 [2]: 1180 nM
GI50 (RXF 393): 186 nM
CC50 (RXF 393; [3]): 759 nM
TGI (RXF 393; read-out: pTGI (converted)): 372 nM
